Converted amounts (≈) assume the structure as drawn.
Legend:
[1] = Half life in Sprague-Dawley rat at 20 mg/kg, iv; assay type: ADME, organism-based; conditions: in vivo
ECV-304 [2] = assay: Protection against H2O2-induced damage in human ECV304 cells preincubated for 24 hrs followed by H2O2 addition and measured after 12 hrs by MTT assay; assay type: functional, cell-based
HepG2 [3] = assay: Antiproliferative activity against human HepG2 cells at 10 uM after 72 hrs by MTT assay relative to control; assay type: functional
MCF7 = assay: Antiproliferative activity against human MCF7 cells after 72 hrs by MTT assay; assay type: functional, cell-based; conditions: MCF7, 72 h
HT-29 [4] = assay: Antiproliferative activity against human HT-29 cells after 72 hrs by MTT assay; assay type: functional, cell-based; conditions: HT-29, 72 h
MDCK [5] = assay: Antiproliferative activity against MDCK cells at 10 uM after 72 hrs by MTT assay relative to control; assay type: cell-based, Canis lupus familiaris; conditions: dog
HeLa [6] = assay: Antiproliferative activity against human HeLa cells after 72 hrs by MTT assay; assay type: functional, cell-based
Bel-7402 [7] = assay: Antiproliferative activity against human Bel7402 cells after 72 hrs by MTT assay; assay type: functional, cell-based; conditions: Bel-7402, 72 h
HepG2 [8] = assay: Antiproliferative activity against human HepG2 cells after 72 hrs by MTT assay; assay type: functional, cell-based; conditions: HepG2, 72 h
PC-12 [9] = assay: Neuroprotection against CoCl2-induced toxicity in rat PC12 cells preincubated for 36 hrs followed by CoCl2 addition measured after 12 hrs by MTT assay; assay type: functional, cell-based
Thoracic aorta = assay: Vasodilatory activity in Sprague-Dawley rat thoracic aorta rings assessed as reduction in KCl-induced contraction; assay type: functional, tissue-based
Mus musculus = assay: Anti-inflammatory activity in Kunming mouse assessed as inhibition of xylene-induced ear edema at 100 mg/kg, ig administered once daily for 7 days relative to control; assay type: functional; conditions: po, 168 h
Platelet = assay: Antiplatelet activity in rabbit platelet rich plasma assessed as inhibition of ADP-induced platelet aggregation by cytometry; assay type: functional, cell-based; conditions: Oryctolagus cuniculus
Bel-7402 [10] = assay: Antiproliferative activity against human Bel7402 cells; assay type: functional, cell-based
A2780 = assay: Antiproliferative activity against human A2780 cells; assay type: functional, cell-based
HCT-8 = assay: Antiproliferative activity against human HCT8 cells; assay type: functional, cell-based
A549 = assay: Antiproliferative activity against human A549 cells; assay type: functional, cell-based
BGC-823 = assay: Antiproliferative activity against human BGC823 cells; assay type: functional, cell-based
HUVEC [11] = assay: Protection against H2O2-induced damage in HUVEC; assay type: functional, cell-based; conditions: Homo sapiens
PC-12 [12] = assay: Neuroprotection against CoCl2-induced toxicity in rat PC12 cells; assay type: functional, cell-based
HepG2 [13] = assay: Antiproliferative activity against human HepG2 cells; assay type: functional, cell-based
HeLa [14] = assay: Antiproliferative activity against human HeLa cells; assay type: functional, cell-based
MDCK [15] = assay: Antiproliferative activity against MDCK cells; assay type: cell-based; conditions: Canis lupus familiaris
HT-29 [16] = assay: Antiproliferative activity against human HT-29 cells; assay type: functional, cell-based
HUVEC [17] = assay: Protection against H2O2-induced damage in HUVEC preincubated for 0.5 hrs followed by H2O2 addition and measured after 12 hrs; assay type: functional, cell-based; conditions: Homo sapiens
HUVEC [18] = assay: Potency index, ratio of ligustrazine EC50 to compound EC50 for protection against H2O2-induced damage in HUVEC; assay type: functional, Homo sapiens
Staphylococcus aureus = assay: Antibacterial activity against Staphylococcus aureus; assay type: functional
[19] = tested on: Staphylococcus epidermidis; assay: Antibacterial activity against Staphylococcus epidermidis; assay type: functional
ECV-304 [20] = assay: Potency index, ratio of ligustrazine EC50 to compound EC50 for protection against H2O2-induced damage in human ECV304 cells; assay type: functional

## CCOC(=O)/C=C/c1cc(OC)c(OC(=O)c2nc(C)c(C)nc2C)c(OC)c1
[1]
  half-life: 3.03 h

## CNC(=N)NC(=O)c1nc(C)c(C)nc1C
ECV-304 [2]
  EC50: 97 µM

## Cc1nc(C)c(COC(=O)[C@]23CC[C@@H](C(C)C)[C@H]2[C@@H]2CC[C@@H]4[C@@]5(C)CC[C@H](O)C(C)(C)[C@@H]5CC[C@@]4(C)[C@]2(C)CC3)nc1C
HepG2 [3]
  Activity: 99.87%
MCF7
  IC50: 4.23 µM
HT-29 [4]
  IC50: 5.23 µM
MDCK [5]
  Activity: 26.5%
HeLa [6]
  IC50: 4.34 µM
Bel-7402 [7]
  IC50: 4.19 µM
HepG2 [8]
  IC50: 4.48 µM

## Cc1nc(C)c(COCc2ccc(OCc3nc(C)c(C)nc3C)cc2)nc1C
PC-12 [9]
  EC50: 1.66 µM

## Cc1nc(C)c(COc2ccc(COc3ccc(C=O)cc3)cc2)nc1C
Thoracic aorta
  EC50: 751 µM

## Cc1nc(C)c(COC(=O)c2cc(O)c3c(c2)C(=O)c2cccc(O)c2C3=O)nc1C
Mus musculus
  inhibition in vivo at 100 mg/kg: 76.4%

## COc1ccc(C(=O)NCc2nc(C)c(C)nc2C)cc1C(=O)NCc1nc(C)c(C)nc1C
Platelet
  IC50: 2790 µM

## COc1cc(COCc2nc(C)c(C)nc2C)ccc1OCc1nc(C)c(C)nc1C
PC-12 [9]
  EC50: 1.07 µM

## COc1cc(/C=C/C(=O)CC(=O)/C=C/c2ccc(OCc3nc(C)c(C)nc3C)c(OC)c2)ccc1OCc1nc(C)c(C)nc1C
Bel-7402 [10]
  IC50: 6.39 µg/mL (≈ 10 µM)
A2780
  IC50: 5.54 µg/mL (≈ 8.7 µM)
HCT-8
  IC50: 7.11 µg/mL (≈ 11.2 µM)
A549
  IC50: 5.89 µg/mL (≈ 9.25 µM)
BGC-823
  IC50: 5.47 µg/mL

## CC(=O)OC(C(=O)NCc1nc(C)c(C)nc1C)c1ccccc1 (configuration not stated)
HUVEC [11]
  EC50: 70 µM

## COc1cc(C(=O)OCc2nc(C)c(C)nc2C)ccc1OCc1nc(C)c(C)nc1C
PC-12 [12]
  EC50: 4.25 µM

## Cc1nc(C)c(COC(=O)[C@]23CCC(C)(C)C[C@H]2C2=CC[C@@H]4[C@@]5(C)CC[C@H](OC(=O)[C@@H](N)CCCCN)C(C)(C)[C@@H]5CC[C@@]4(C)[C@]2(C)CC3)nc1C
HepG2 [13]
  IC50: 2.27 µM
HeLa [14]
  IC50: 2.38 µM
MDCK [15]
  IC50: 2.31 µM
HT-29 [16]
  IC50: 2.35 µM
BGC-823
  IC50: 2.48 µM

## Cc1nc(C)c(CNC(=O)c2ccncc2)nc1C
HUVEC [11]
  EC50: 37 µM

## Cc1nc(C)c(COC(=O)[C@]23CCC(C)(C)C[C@H]2C2=CC[C@@H]4[C@@]5(C)CC[C@H](O)C(C)(C)[C@@H]5CC[C@@]4(C)[C@]2(C)CC3)nc1C
HepG2 [13]
  IC50: 21.4 µM
HeLa [14]
  IC50: 8.68 µM
HT-29 [16]
  IC50: > 25 µM

## Cc1nc(C)c(/C=C/c2ccccc2Cl)nc1C
HUVEC [17]
  EC50: 0.0249 µM
HUVEC [18]
  Ratio EC50: 30000

## Cc1nc(C)c(COc2ccc(N3CC(CNC(=O)CCl)OC3=O)cc2F)nc1C (configuration not stated)
Staphylococcus aureus
  MIC: 8 µg/mL (≈ 18.3 µM)
[19]
  MIC: 4 µg/mL (≈ 9.16 µM)

## COc1cc(C(=O)c2cccc(N(C)C)c2)ccc1OCc1nc(C)c(C)nc1C
PC-12 [12]
  EC50: 17.4 µM

## Cc1nc(C)c(C(=O)NC(=N)NCc2cccc(Cl)c2)nc1C
ECV-304 [2]
  EC50: 59 µM
ECV-304 [20]
  Ratio EC50: 10

## Cc1nc(C)c(CCOc2cccc3c2C(=O)c2c(OCCc4nc(C)c(C)nc4C)cc(C(=O)O)cc2C3=O)nc1C
Mus musculus
  inhibition in vivo at 100 mg/kg: 17.5%

## Cc1nc(C)c(C(=O)Oc2ccc(CO[N+](=O)[O-])cc2)nc1C
Thoracic aorta
  EC50: 93 µM

## CCOC(=O)c1ccc(OCc2ccc(OCc3nc(C)c(C)nc3C)cc2)cc1
Thoracic aorta
  EC50: 751 µM

## Cc1nc(C)c(COCCc2ccc(OCc3nc(C)c(C)nc3C)cc2)nc1C
PC-12 [9]
  EC50: 2.03 µM

## Cc1nc(C)c(COc2ccc(COC(=O)c3cccnc3)cc2)nc1C
Thoracic aorta
  EC50: 379 µM

## COc1ccc(/C=C/c2nc(C)c(C)nc2C)c(OC)c1OC
HUVEC [17]
  EC50: 5.76 µM

## Cc1nc(C)c(C(=O)NC(=N)NCc2ccc(Cl)c(Cl)c2)nc1C
ECV-304 [2]
  EC50: 94 µM

## Cc1nc(C)c(COC(=O)CC[C@@H](C)[C@H]2CC[C@H]3[C@@H]4CC[C@@H]5C[C@H](O)CC[C@]5(C)[C@H]4C[C@H](O)[C@]23C)nc1C
Bel-7402 [10]
  IC50: 8.01 µg/mL (≈ 15.2 µM)
A2780
  IC50: 6.62 µg/mL (≈ 12.6 µM)
HCT-8
  IC50: 7.43 µg/mL (≈ 14.1 µM)
A549
  IC50: 6.69 µg/mL (≈ 12.7 µM)
BGC-823
  IC50: 6.66 µg/mL

## COc1cccc(/C=C/c2nc(C)c(C)nc2C)c1O
HUVEC [17]
  EC50: 28.9 µM

## Cc1nc(C)c(COc2ccc(N3CC(CNC(=O)CCl)OC3=O)cc2)nc1C (configuration not stated)
Staphylococcus aureus
  MIC: 8 µg/mL (≈ 19.1 µM)
[19]
  MIC: 8 µg/mL (≈ 19.1 µM)

## Cc1nc(C)c(CNC(=O)C(O)c2ccccc2)nc1C (configuration not stated)
HUVEC [11]
  EC50: 55 µM

## COc1ccc(/C=C/C(=O)NCc2nc(C)c(C)nc2C)c(OC)c1OC
PC-12 [12]
  EC50: 25 µM

## Cc1nc(C)c(COC(=O)[C@]23CCC(C)(C)C[C@H]2C2=CC[C@@H]4[C@@]5(C)CC[C@H](OC(=O)CN)C(C)(C)[C@@H]5CC[C@@]4(C)[C@]2(C)CC3)nc1C
HepG2 [13]
  IC50: 2 µM
HeLa [14]
  IC50: 3.26 µM
MDCK [15]
  IC50: 4.88 µM
HT-29 [16]
  IC50: 2.5 µM
BGC-823
  IC50: 3.06 µM

## COc1cc(/C=C/C(=O)CC(=O)/C=C/c2ccc(O)c(OC)c2)ccc1O [CURCUMIN]
Bel-7402 [10]
  IC50: 6.5 µg/mL (≈ 17.6 µM)
A2780
  IC50: 6.52 µg/mL (≈ 17.7 µM)
HCT-8
  IC50: 6.28 µg/mL (≈ 17 µM)
A549
  IC50: 6.52 µg/mL (≈ 17.7 µM)
BGC-823
  IC50: 6.81 µg/mL

## Cc1nc(C)c(C)nc1C [LIGUSTRAZINE]
ECV-304 [2]
  EC50: 549 µM
MCF7
  IC50: > 20 µM
HT-29 [4]
  IC50: > 20 µM
HUVEC [11]
  EC50: 600 µM
HeLa [6]
  IC50: > 20 µM
PC-12 [12]
  EC50: 60 to 64.5 µM
Thoracic aorta
  EC50: 2330 µM
Bel-7402 [7]
  IC50: > 20 µM
HUVEC [17]
  EC50: 788 µM
HepG2 [8]
  IC50: > 20 µM
PC-12 [9]
  EC50: 64.5 µM

## COc1ccc(C(=O)NCc2cccnc2)cc1C(=O)NCc1cccnc1 [PICOTAMIDE]
Platelet
  IC50: 49900 µM

## O=C(O)c1cc(O)c2c(c1)C(=O)c1cccc(O)c1C2=O [RHEIN]
Mus musculus
  inhibition in vivo at 100 mg/kg: 65.5%

From ChEMBL document CHEMBL4145538, “Recent progress in the structural modification and pharmacological activities of ligustrazine derivatives” (Eur J Med Chem, 2018)
